We go through 14 compounds from US6060600A, “Substituted tetronic acids useful for treating HIV and other retroviruses” (Pharmacia & Upjohn Company, priority 1997, dated 2000).

Square brackets hold non-standard residues; d marks the D form. Peptide text beside a SMILES is read from it. * marks the point of attachment. Sta = CC(C)C[C@H](N)[C@@H](O)CC(=O)O; Isovaleryl = CC(C)CC(=O)*

One may read the % Inhibition as the drop in the measured response relative to a control, in per cent.

For one assay, the target named is T1, HIV-1 protease (Human immunodeficiency virus type 1 group M subtype B, UniProt P04585).
T1 construct: The protease (or proteinase) enzyme, consisting of only 99 amino acids
Kind of assay: In vitro HIV protease inhibitory assay (fluorescently labeled substrate). The following applies: pH 5.5, one hour, room temperature. The format is biochemical. As to the method:
The HIV protease screening assay is based on a fluorescently labeled substrate which can be resolved from nonlabeled cleavage product using avidin-polystyrene particles, 0.7-0.9 μm. The substrate is biotinylated at the amino terminal arginine and fluorescently labeled with fluorescein isothiocynate (FITC) at the carboxyl terminal lysine. This assay has been employed to detect novel, nonpeptidic inhibitors of HIV-1 protease. Substrate (20 μl of 0.2 μM), sample (10 μl of desired concentration), and enzyme (10 μl of 0.1 μM) are added to a 96 well pandex plate. The assay is run in 0.1 M sodium acetate buffer at pH 5.5 in the presence of 1.0 M sodium chloride and 0.05% NP-40 and incubated in the dark for one hour at room temperature. Avidin coated polystyrene beads (40 μl of 0.1% (w/v)) are added and the incubation is continued in the dark for an additional half hour. The labeled cleavage product is separated from the unreacted substrate via filtration and is read on the IDEXX Screen Machine. (IDEXX Corporation--Portland, Maine) The data are analyzed by appropriate computer algorithms to ascertain percent inhibition values.
The Activity Table showing the results of the HIV Protease Inhibitory Assay appears below in TABLE 1. The table has three columns, the left column provides the code number of the compound for easy cross reference to structure tables and detailed procedures, the middle column provides the concentration of test compound and the column on the right provides the percent inhibition.

Assay [1] has as its system viral reverse transcriptase. The note with it: cited from earlier work.
The test system of the next assay is HIV-I protease. The following applies: Seelmeier et al.; cited from earlier work.
[2] abbreviates: HIV-1 Dose 3.3 (unit not given).
Setting [3] is: HIV-1 Dose 10.0 (unit not given).
Where [4] appears, read: HIV-1 Dose 30.0 (unit not given).

For `CCCC1(CCC)OC(=O)C(C(c2cccc(N(C)S(=O)(=O)c3ccc(C#N)cc3)c2)C2CC2)=C1O` (centres unmarked) [AX-1], the “% Inhibition” value on HIV-1 protease (setting [2]) is reported as 103.5%; at HIV-1 protease (setting [3]), 111.53%; at HIV-1 protease (setting [4]), 102.32%.
On to `Cc1cn([C@H]2C[C@H](N=[N+]=[N-])[C@@H](CO)O2)c(=O)[nH]c1=O` [AZT, 3-azido-3-deoxythymidine], for which the “inhibitor of viral reverse transcriptase” value in assay [1] is recorded as “known inhibitor of viral reverse transcriptase”.
Consider `N#Cc1ccc(S(=O)(=O)Nc2cccc(C(C3=C(O)C4(CCN(C(=O)OCC5c6ccccc6-c6ccccc65)CC4)OC3=O)C3CC3)c2)cc1` (centres unmarked) [BX-1], for which the “% Inhibition” value at HIV-1 protease (setting [2]) is 113.09%; on HIV-1 protease (setting [3]), 126.98%; on HIV-1 protease (setting [4]) it was 123.63%.
Taken in the same sequence, the figures for `N#Cc1ccc(S(=O)(=O)Nc2cccc(C(C3=C(O)C4(CCNCC4)OC3=O)C3CC3)c2)cc1` (centres unmarked) [BX-2] were 90.58%, 103.27% and 101.26%.
For `N#Cc1ccc(S(=O)(=O)Nc2cccc(C(C3=C(O)C4(CCN(CC5c6ccccc6-c6ccccc65)CC4)OC3=O)C3CC3)c2)cc1` (centres unmarked) [BX-3], the “% Inhibition” value amounted to 108.72% on HIV-1 protease (setting [2]), 107% at HIV-1 protease (setting [3]) and 103.12% at HIV-1 protease (setting [4]).
Taken in the same sequence, the figures for `CCN1CCC2(CC1)OC(=O)C(C(c1cccc(NS(=O)(=O)c3ccc(C#N)cc3)c1)C1CC1)=C2O` (centres unmarked) [BX-4] were 71.3%, 94.47% and 101.07%.
As to `CN1CCC2(CC1)OC(=O)C(C(c1cccc(NS(=O)(=O)c3ccc(C#N)cc3)c1)C1CC1)=C2O` (centres unmarked) [BX-5], the “% Inhibition” value on HIV-1 protease (setting [2]) amounted to 61.58%; on HIV-1 protease (setting [3]), 85.22%; on HIV-1 protease (setting [4]), 98.54%.
In the case of `CC(=O)N1CCC2(CC1)OC(=O)C(C(c1cccc(NS(=O)(=O)c3ccc(C#N)cc3)c1)C1CC1)=C2O` (centres unmarked) [CX-1], the “% Inhibition” value on HIV-1 protease (setting [2]) came out at 107.43%; on HIV-1 protease (setting [3]) it was 98.33%; at HIV-1 protease (setting [4]), 103.37%.
Turning to `N#Cc1ccc(S(=O)(=O)Nc2cccc(C(C3=C(O)C4(CCN(C(=O)c5ccccc5)CC4)OC3=O)C3CC3)c2)cc1` (centres unmarked) [CX-2], the “% Inhibition” value came to 107.56% on HIV-1 protease (setting [2]), 109.04% at HIV-1 protease (setting [3]) and 110.58% at HIV-1 protease (setting [4]).
Regarding `CCCC1(CCC)OC(=O)C(C(c2cccc(NS(=O)(=O)c3cccnn3)c2)C2CC2)=C1O` (centres unmarked) [DX-1], the “% Inhibition” value was 108.97% at HIV-1 protease (setting [2]), 109.57% at HIV-1 protease (setting [3]) and 113.85% on HIV-1 protease (setting [4]).
In the same order, the values of `CCC1CCCCC12OC(=O)C(C(c1cccc(NS(=O)(=O)c3ccc(C#N)cc3)c1)C1CC1)=C2O` (centres unmarked) [DX-2] are 115.79%, 115.80% and 113.98%.
In the same order, the values of `CCC1CCCCC12OC(=O)C(C(c1cccc(NS(=O)(=O)c3ccc(C#N)cc3)c1)C1CC1)=C2O` (centres unmarked) [DX-3] are 117.26%, 110.16% and 113.83%.
For `C=CCC1(CC=C)OC(=O)C(C(c2ccccc2)C2CC2)=C1O` (centres unmarked) [DX-4], the “% Inhibition” value was 108.42% on HIV-1 protease (setting [2]), 106.81% at HIV-1 protease (setting [3]) and 106.29% at HIV-1 protease (setting [4]).
As for `CC(C)CC(=O)N[C@H](C(=O)N[C@H](C(=O)N[C@@H](CC(C)C)[C@@H](O)CC(=O)N[C@@H](C)C(=O)N[C@@H](CC(C)C)[C@@H](O)CC(=O)O)C(C)C)C(C)C` [Pepstatin A] (Isovaleryl-VV[Sta]A[Sta]-OH), the “inhibitor of HIV-I protease” value in the assay on HIV-I protease was “inhibitor of HIV-I protease”.
